Legend:
[1] = test system: bacterial soft rot causing bacteria (Erwinia carotovora subsp. Carotovora); assay: Bacterial soft rot in Arabidopsis thaliana after root treatment by watering; type: in vivo; conditions: comparative agents used instead of the plant activator, roots treated by watering, inoculated 24 hours after treatment
Protocol: The roots of Arabidopsis thaliana grown in the soil were treated by applying the 10 times, 100 times or 500 times diluted solution of the plant activator for test using the watering. 24 hours after the treatment, bacterial soft rot causing bacteria (Erwinia carotovora subsp. Carotovora) was inoculated on the leaves and stems above the ground. The plants were then grown at 23±2° C. in a high humidity environment for 3 days, and the disease symptoms at the pathogenic bacteria inoculated part had been evaluated up to one week after. The disease prevention effect was determined according to the following criteria.
⊚: the ratio of the area of leaves with no disease symptoms out of total area is 1.60 times or greater than the ratio observed in untreated leaves. ∘: the ratio of the area of leaves with no disease symptoms out of total area is 1.40 to 1.59 times than the ratio observed in untreated leaves. Δ: the ratio of the area of leaves with no disease symptoms out of total area is 1.20 to 1.39 times than the ratio observed in untreated leaves. X: the ratio of the area of leaves with no disease symptoms out of total area is 1.20 times less than the ratio observed in untreated leaves.
The roots of Arabidopsis thaliana were treated similar to Example 2 except that the water, peroxylipid, probenazole, isotianil, acibenzolar-S-methyl (ASM), 3′-chloro-4,4′-dimethyl-1,2,3-thiadiazole-5-carboxianilide (tiadinil), ketol fatty acid solution 1, or ketol fatty acid solution 2 was used instead of the plant activator for test.

[2] = test system: Tomato (cultivar "Reika"); type: in vivo; conditions: farm field, plant activator 50 times diluted, applied once every week
Protocol: (§1) Tomato (cultivar “Reika”) seedlings were planted with space of 60 cm between plants in the farm field where an outburst of bacterial wilt disease was observed, and the solution of the plant activator for test, which was 50 times diluted with water, was applied either by spraying (20 mL/plant) or watering it to soil (200 mL plant) once every week. The incidences of the bacterial wilt disease and phytotoxic damage were evaluated once every week for 4 weeks.
(§2) The leaves and stems of tomatoes were treated similar to Example 6 except that the Validamycin or no agent was used instead of the plant activator for test.

bacterial wilt disease = assay: Bacterial wilt disease in tomatoes growing in farm field; type: in vivo, Tomato (cultivar "Reika"); conditions: plant activator 50 times diluted, applied once every week
Protocol: as §1, §2

black point disease = assay: Naturally occurring black point disease in miniature roses in a planter; type: in vivo, miniature roses (cultivar Rouge); conditions: plant activator 100 times diluted or 0.02% mepanipyrim, sprayed once every week
Protocol: (§3) The solution of the plant activator for test, which was 100 times diluted with water, was applied to the leaves and stems of miniature roses (cultivar Rouge) planted in an outdoor planter right after the planting and once every week by spraying (about 50 mL/plant), and the naturally occurring damages due to disease (powdery mildew and black point disease) were evaluated on first week and fourth week.
(§4) The leaves and stems of miniature roses were treated similar to Example 7 except that 0.02% mepanipyrim or no agent was used instead of the plant activator for test.

powdery mildew = assay: Naturally occurring powdery mildew in miniature roses in a planter; type: in vivo, miniature roses (cultivar Rouge); conditions: plant activator 100 times diluted or 0.02% mepanipyrim, sprayed once every week
Protocol: as §3, §4

[3] = test system: bacterial wilt disease bacteria; assay: Bacterial wilt disease in tomatoes grown in pot; type: in vivo, tomatoes (cultivar "Momotaro"); conditions: 10 mL undiluted solution by watering, grown 7 days at 30° C. after inoculation
Protocol: (§5) The leaves and stems of tomatoes (cultivar “Momotaro”) grown in the pot for 3 weeks were treated by applying 10 mL of undiluted solution of the plant activator for test using the watering. The soil (about 100 g) in the pot was moistened thoroughly before the watering. The bacterial wilt disease bacteria were inoculated on the leaves and roots of tomatoes 1 hour and 24 hours after the watering. The plants were then grown at 30° C. in a high humidity environment for 7 days, and the incidences of the bacterial wilt disease and phytotoxic damage were evaluated.
(§6) The leaves and stems of tomatoes were treated similar to Example 5 except that the water and the fatty acid (linoleic acid) were used instead of the plant activator for test.

[4] = test system: tomatoes (cultivar "Momotaro"); assay: Phytotoxic damage in tomatoes grown in pot; type: in vivo; conditions: 10 mL undiluted solution by watering, 7 days
Protocol: as §5, §6

[5] = test system: salicylic acid mediated signaling pathway; assay: Real-time PCR gene expression in tomatoes, salicylic acid mediated signaling pathway; type: in vivo, tomatoes (cultivar "Momotaro"); conditions: index, untreated tomatoes = 1
Protocol: (§7) Further, the cDNA was synthesized from total RNA isolated from each tomato 24 hours and 72 hours after the inoculation, and the expression level of individual genes specific to the salicylic acid mediated signaling pathway and the jasmonate mediated signaling pathway was analyzed by real-time PCR. In this example, the amount of the gene expression is represented by an index, which is a calculated ratio given that the amount of gene expression in untreated tomatoes is 1.

[6] = test system: jasmonate mediated signaling pathway; assay: Real-time PCR gene expression in tomatoes, jasmonate mediated signaling pathway; type: in vivo, tomatoes (cultivar "Momotaro"); conditions: index, untreated tomatoes = 1
Protocol: as §7

`N#Cc1ccccc1NC(=O)c1snc(Cl)c1Cl` [isotianil] was tested, and the disease prevention [1] was “Δ (the ratio of the area of leaves with no disease symptoms out of total area is 1.20 to 1.39 times than the ratio observed in untreated leaves.)”.

`OCC1=C[C@H](N[C@H]2C[C@H](CO)[C@@H](O[C@@H]3O[C@H](CO)[C@@H](O)[C@H](O)[C@H]3O)[C@H](O)[C@H]2O)[C@H](O)[C@@H](O)[C@@H]1O` [Validamycin] was tested, and the “incidences of phytotoxic damage Week 1” value ([2]; Week 1) was 100%, the “incidences of phytotoxic damage Week 2” value ([2]; Week 2) was 100% and the “incidences of phytotoxic damage Week 3” value ([2]; Week 3) was 100%. The “incidences of phytotoxic damage Week 4” value ([2]; Week 4) was 100%, the “incidences of disease Week 1” value (bacterial wilt disease; Week 1) was 0% and the “incidences of disease Week 2” value (bacterial wilt disease; Week 2) was 0%. For the same compound, the “incidences of disease Week 3” value (bacterial wilt disease; Week 3) was 0% and the “incidences of disease Week 4” value (bacterial wilt disease; Week 4) was 67%.

`CSC(=O)c1cccc2nnsc12` [ASM, acibenzolar-S-methyl] was tested, and the disease prevention [1] was “⊚ (the ratio of the area of leaves with no disease symptoms out of total area is 1.60 times or greater than the ratio observed in untreated leaves.)”.

`CC#Cc1cc(C)nc(Nc2ccccc2)n1` [mepanipyrim] was tested, and the “incidences of disease black point disease Week 1” value (black point disease; Week 1) was 0%, the “incidences of disease black point disease Week 4” value (black point disease; Week 4) was 15% and the “incidences of disease powdery mildew Week 1” value (powdery mildew; Week 1) was 20.0%. For the same compound, the “incidences of disease powdery mildew Week 4” value (powdery mildew; Week 4) was 30.0%.

In the case of `Cc1ccc(NC(=O)c2snnc2C)cc1Cl` [tiadinil, 3′-chloro-4,4′-dimethyl-1,2,3-thiadiazole-5-carboxianilide], the disease prevention [1] is reported as “X (the ratio of the area of leaves with no disease symptoms out of total area is 1.20 times less than the ratio observed in untreated leaves.)”.

With `CCCCC/C=C\C/C=C\CCCCCCCC(=O)O` [fatty acid, linoleic acid] the incidences of disease [3] was 100%, the “incidences of phytotoxic damage” value [4] was 0% and the “amount of gene expression salicylic acid mediated signaling pathway 24 hours” value ([5]; 24 hours after inoculation) was 0. The “amount of gene expression salicylic acid mediated signaling pathway 72 hours” value ([5]; 72 hours after inoculation) was 0, the “amount of gene expression jasmonate mediated signaling pathway 24 hours” value ([6]; 24 hours after inoculation) was 0.5 and the “amount of gene expression jasmonate mediated signaling pathway 72 hours” value ([6]; 72 hours after inoculation) was 1.

With `C=CCOC1=NS(=O)(=O)c2ccccc21` [probenazole] the disease prevention [1] was “Δ (the ratio of the area of leaves with no disease symptoms out of total area is 1.20 to 1.39 times than the ratio observed in untreated leaves.)”.

Source: patent US20220295713A1, “PLANT ACTIVATOR AND A METHOD OF MANUFACTURING THE SAME” (IBIDEN CO., LTD., priority 2016, published 2022)
